Laboratory results: ChEMBL document CHEMBL1201862, “PubChem BioAssay data set” (2004)
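Values below derive from 48-hour exposures of cells grown in 96-well plates, with endpoints linearly interpolated between the two concentrations bracketing the appropriate inhibition level. The concentration for 50% growth inhibition is given as GI50.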 Activity calls are given as the source filed them. Cut-off read from the data, not from the text of the source: active = GI50 up to about 1.1 µM and inactive = higher.

What was measured:
Test in all cases: growth of human tumour cells (NCI), 48 h
[1] = tested on: SK-MEL-28
[2] = tested on: A498
[3] = tested on: K562
[4] = tested on: HCC 2998
[5] = tested on: SK-MEL-5
[6] = tested on: SF-539
[7] = tested on: U-251
[8] = tested on: CCRF-CEM
[9] = tested on: UACC-62
[10] = tested on: IGROV-1
[11] = tested on: HL-60
[12] = tested on: OVCAR-4
[13] = tested on: SK-MEL-2
[14] = tested on: M14
[15] = tested on: SF-268
[16] = tested on: SW-620
[17] = tested on: HOP-62
[18] = tested on: A549
[19] = tested on: 786-0
[20] = tested on: HOP-92

Structure (SMILES) | GI50 [1] | GI50 [2] | GI50 [3] | GI50 [4] | GI50 [5] | GI50 [6] | GI50 [7] | GI50 [8] | GI50 [9] | GI50 [10] | GI50 [11] | GI50 [12] | GI50 [13] | GI50 [14] | GI50 [15] | GI50 [16] | GI50 [17] | GI50 [18] | GI50 [19] | GI50 [20]
CC(C)(CN1CCCCC1)C(/C=C/c1ccc(Cl)c(Cl)c1)=N\NC(=O)N/N=C(/C=C/c1ccc(Cl)c(Cl)c1)C(C)(C)CN1CCCCC1 | 1.72 µM (inactive) | 1.72 µM (inactive) | 0.325 µM (active) | 1.69 µM (inactive) | 1.99 µM (inactive) | 1.77 µM (inactive) | 1.69 µM (inactive) | 1.76 µM (inactive) | 1.95 µM (inactive) | 1.77 µM (inactive) | 1.52 µM (inactive) | 1.71 µM (inactive) | > 10 µM (inactive) | 0.385 µM (active) | 1.57 µM (inactive) | 1.62 µM (inactive) | 1.87 µM (inactive) | 1.86 µM (inactive) | 1.48 µM (inactive) | 
O=C1C2c3[nH]c4ccccc4c3[C@@H]3CCCCCCCCCCC3C2C(=O)N1c1ccccc1 (some centres undefined) | 23.2 µM (inactive) |  | 8.67 µM (inactive) | 27.5 µM (inactive) | 78 µM (inactive) | 10.1 µM (inactive) | 18.2 µM (inactive) |  | 20.1 µM (inactive) | 18.7 µM (inactive) | 12.1 µM (inactive) | 17.6 µM (inactive) |  | 15.3 µM (inactive) | 13.6 µM (inactive) | 15.2 µM (inactive) |  | 21.8 µM (inactive) | 16.1 µM (inactive) | 
CC(=O)OC1[C@H]2c3cc4c(cc3CN3CCC(=C[C@@H]1O)C23)OCO4 (some centres undefined) | 23.4 µM (inactive) |  | > 100 µM (inactive) | 34.8 µM (inactive) |  | > 100 µM (inactive) | > 100 µM (inactive) | > 100 µM (inactive) | 53.7 µM (inactive) | > 100 µM (inactive) | > 100 µM (inactive) |  |  | 44.5 µM (inactive) | 37.2 µM (inactive) | > 100 µM (inactive) | > 100 µM (inactive) | > 100 µM (inactive) | > 100 µM (inactive) | 
COc1ccc(/C=C/C(=O)c2c(-c3ccccc3)nn(C)c(=O)c2N2CCCCC2)cc1 | 14.9 µM (inactive) |  | 11.8 µM (inactive) |  | 12.8 µM (inactive) | 17.5 µM (inactive) | 14.5 µM (inactive) | 9.95 µM (inactive) | 15.7 µM (inactive) | 25 µM (inactive) |  |  |  | 20.7 µM (inactive) | 19.7 µM (inactive) | 24.5 µM (inactive) |  | 16.8 µM (inactive) | 14.2 µM (inactive) | 3.81 µM (inactive)
O=C(NC(=S)Nc1ccc2c(c1)Sc1ccccc1O2)c1ccc([N+](=O)[O-])cc1 | > 100 µM (inactive) |  | > 100 µM (inactive) |  | > 100 µM (inactive) | > 100 µM (inactive) | > 100 µM (inactive) | > 100 µM (inactive) | > 100 µM (inactive) | > 100 µM (inactive) | > 100 µM (inactive) | > 100 µM (inactive) | > 100 µM (inactive) | > 100 µM (inactive) | > 100 µM (inactive) | > 100 µM (inactive) | > 100 µM (inactive) | > 100 µM (inactive) | > 100 µM (inactive) | > 100 µM (inactive)
CCC1CCc2c(OC)ccc(OCC(=O)O)c2C1=O (centres undefined) | > 100 µM (inactive) |  | > 100 µM (inactive) | > 100 µM (inactive) | > 100 µM (inactive) | > 100 µM (inactive) | > 100 µM (inactive) | > 100 µM (inactive) | > 100 µM (inactive) | > 100 µM (inactive) | > 100 µM (inactive) | > 100 µM (inactive) | > 100 µM (inactive) | > 100 µM (inactive) | > 100 µM (inactive) | > 100 µM (inactive) | > 100 µM (inactive) | > 100 µM (inactive) | > 100 µM (inactive) | 
Cc1cc2cc(Cl)ccc2nc1C(=O)c1ccccc1 | > 100 µM (inactive) |  | > 100 µM (inactive) | > 100 µM (inactive) | > 100 µM (inactive) | > 100 µM (inactive) | > 100 µM (inactive) |  | > 100 µM (inactive) | > 100 µM (inactive) |  | > 100 µM (inactive) | > 100 µM (inactive) | > 100 µM (inactive) | > 100 µM (inactive) | > 100 µM (inactive) | 43.1 µM (inactive) | > 100 µM (inactive) | > 100 µM (inactive) | 
O=C1CC23CC(=O)CC2(C1)c1ccccc1C3=O (centres undefined) | > 100 µM (inactive) |  | > 100 µM (inactive) | > 100 µM (inactive) |  | > 100 µM (inactive) | > 100 µM (inactive) | > 100 µM (inactive) | > 100 µM (inactive) | > 100 µM (inactive) | > 100 µM (inactive) |  | > 100 µM (inactive) | > 100 µM (inactive) | > 100 µM (inactive) | > 100 µM (inactive) | > 100 µM (inactive) | > 100 µM (inactive) | > 100 µM (inactive) | 
O=C(C#Cc1cn(C2CC(O)C(CO)O2)c(=O)[nH]c1=O)c1ccccc1 (centres undefined) | 39.5 µM (inactive) |  |  | > 100 µM (inactive) | 88.7 µM (inactive) | 23.2 µM (inactive) | > 100 µM (inactive) |  | > 100 µM (inactive) | > 100 µM (inactive) |  | 51.4 µM (inactive) | > 100 µM (inactive) | 28.5 µM (inactive) | > 100 µM (inactive) | 25.2 µM (inactive) | > 100 µM (inactive) | > 100 µM (inactive) | 62.2 µM (inactive) | 29.5 µM (inactive)
CCOC(=N)CC(=O)Nc1ccc(Cl)cc1 | > 100 µM (inactive) | > 100 µM (inactive) | > 100 µM (inactive) | > 100 µM (inactive) | > 100 µM (inactive) | > 100 µM (inactive) | > 100 µM (inactive) | > 100 µM (inactive) | > 100 µM (inactive) | > 100 µM (inactive) | > 100 µM (inactive) | > 100 µM (inactive) | > 100 µM (inactive) | > 100 µM (inactive) | > 100 µM (inactive) | > 100 µM (inactive) | > 100 µM (inactive) | > 100 µM (inactive) | > 100 µM (inactive) | 
C=C1CC(c2ccc(O)c(OC)c2)Oc2c(OC)cccc21 (centres undefined) | 43.5 µM (inactive) |  | 19.7 µM (inactive) | > 100 µM (inactive) | 35.7 µM (inactive) | 21.3 µM (inactive) | 30.7 µM (inactive) | 23.8 µM (inactive) | 35.4 µM (inactive) | 36 µM (inactive) | 13 µM (inactive) | 54 µM (inactive) |  | 34 µM (inactive) | 33 µM (inactive) | 34 µM (inactive) | 85.3 µM (inactive) | 33.7 µM (inactive) | 58.9 µM (inactive) | 14.4 µM (inactive)
COc1cc(C2C(Cl)C(=O)N2NC(=O)Cc2ccccc2)cc(Br)c1O (centres undefined) | > 100 µM (inactive) |  | > 100 µM (inactive) | > 100 µM (inactive) | 69.8 µM (inactive) |  | > 100 µM (inactive) | 46.1 µM (inactive) | 55 µM (inactive) | > 100 µM (inactive) | 48 µM (inactive) | 63.5 µM (inactive) | > 100 µM (inactive) | > 100 µM (inactive) | 61 µM (inactive) | > 100 µM (inactive) | > 100 µM (inactive) | > 100 µM (inactive) | > 100 µM (inactive) | 
C/C(CN1C(=O)c2ccccc2C1=O)=N\NS(=O)(=O)c1ccc(F)cc1 | > 100 µM (inactive) | > 100 µM (inactive) | > 100 µM (inactive) | > 100 µM (inactive) | > 100 µM (inactive) | > 100 µM (inactive) | > 100 µM (inactive) | > 100 µM (inactive) | > 100 µM (inactive) | > 100 µM (inactive) | > 100 µM (inactive) | > 100 µM (inactive) | > 100 µM (inactive) | > 100 µM (inactive) | > 100 µM (inactive) | > 100 µM (inactive) | > 100 µM (inactive) | > 100 µM (inactive) | > 100 µM (inactive) | 
CCCCCCC1CC(=O)C1(Cl)Cl (centres undefined) | > 10 µM (inactive) |  | 14.7 µM (inactive) | 26.3 µM (inactive) | 17 µM (inactive) | 31.3 µM (inactive) | 38.3 µM (inactive) | 2.4 µM (inactive) | 20.3 µM (inactive) | 25.1 µM (inactive) | 2.96 µM (inactive) | 29.1 µM (inactive) | 30.9 µM (inactive) | 26.7 µM (inactive) | 20.7 µM (inactive) | 19.6 µM (inactive) | 44.7 µM (inactive) | > 100 µM (inactive) | 15 µM (inactive) | 
Cc1noc(C)c1CCCOC1COc2ccccc2OCCOCCOc2ccccc2OC1 | > 100 µM (inactive) | > 100 µM (inactive) | > 100 µM (inactive) | > 100 µM (inactive) | > 100 µM (inactive) | > 100 µM (inactive) | > 100 µM (inactive) |  | 27.5 µM (inactive) | > 100 µM (inactive) | > 100 µM (inactive) | > 100 µM (inactive) | > 100 µM (inactive) | > 100 µM (inactive) | > 100 µM (inactive) | > 100 µM (inactive) | > 100 µM (inactive) | > 100 µM (inactive) | > 100 µM (inactive) | 
CCOC(=O)Nn1c(C)cc(C(=O)OC)c1C | > 100 µM (inactive) | > 100 µM (inactive) | > 100 µM (inactive) | > 100 µM (inactive) | > 100 µM (inactive) | > 100 µM (inactive) | > 100 µM (inactive) | > 100 µM (inactive) | > 100 µM (inactive) | > 100 µM (inactive) | > 100 µM (inactive) |  | > 100 µM (inactive) | > 100 µM (inactive) | > 100 µM (inactive) | > 100 µM (inactive) | > 100 µM (inactive) | > 100 µM (inactive) | > 100 µM (inactive) | 
